Results published in US20230114728A1 (Venatorx Pharmaceuticals, Inc., priority 2019, published 2023).
In brackets after ≈: the same amount, converted by molar mass.

Experiments:
Assay type in all cases: cell-based
A. baumannii ATCC 19606 = assay: Broth microdilution MIC in CAMHB; conditions: Acinetobacter baumannii, ATCC19606; MHB; read-out: Minimum Inhibitory Concentration, A. baumannii ATCC 19606
Outline: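 Hyper-permeable or efflux-deficient strains serve to probe outer-membrane penetration. Growth inhibition is scored visually after 16-20 h at 37° C in CAMHB, starting from 2-8×10^5 CFU/mL.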

E. coli AG100A = assay: Broth microdilution MIC in CAMHB; conditions: Escherichia coli, read-out: Minimum Inhibitory Concentration, E. coli AG100A
Outline: (§1)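 Colonies from cation-adjusted Mueller Hinton agar are grown in broth (3-5 h, 37° C), adjusted by OD600, and added at 2-8×10^5 CFU/mL to 2-fold compound dilutions. After 16-20 h at 37° C, the lowest concentration without growth is taken as MIC.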

E. coli AG100 = assay: Broth microdilution MIC in CAMHB; conditions: Escherichia coli; E. coli AG100 (wild-type parent); MHB; read-out: Minimum Inhibitory Concentration, E. coli AG100
Outline: as §1

E. coli ATCC 25922 = assay: Broth microdilution MIC in CAMHB; conditions: Escherichia coli, ATCC25922; E. coli ATCC 25922; MHB; read-out: Minimum Inhibitory Concentration, E. coli 25922
Outline: as §1

E. coli D22 = assay: Broth microdilution MIC in CAMHB; conditions: Escherichia coli; E. coli D22 (hyper-permeable); MHB; read-out: Minimum Inhibitory Concentration, E. coli D22
Outline: as §1

[1] = tested on: N. gonorrhoeae ATCC 49226; assay: Liquid broth MIC in Fastidious broth; conditions: Neisseria gonorrhoeae, ATCC49226; N. gonorrhoeae strain ATCC 49226; Fastidious broth; read-out: Minimum Inhibitory Concentration, N. gonorrhoeae ATCC 49226
Outline: (§2)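 Colonies were swabbed from chocolate agar after 24 h growth and standardised by optical density at 600 nm. Compounds were serially diluted twofold in Fastidious broth, and bacteria added to give 5×10^5 CFU/mL. After about 24 h at 36 °C in 5% CO2, the lowest concentration allowing under 10% growth was taken as MIC.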

N. gonorrhoeae FA1090 = assay: Liquid broth MIC in Fastidious broth; conditions: Neisseria gonorrhoeae; N. gonorrhoeae strain FA1090; Fastidious broth; read-out: Minimum Inhibitory Concentration, N. gonorrhoeae FA1090
Outline: as §2

N. gonorrhoeae H041 = assay: Liquid broth MIC in Fastidious broth; conditions: Neisseria gonorrhoeae, H041, read-out: Minimum Inhibitory Concentration, N. gonorrhoeae H041
Outline: as §2

N. gonorrhoeae WHO G = assay: Liquid broth MIC in Fastidious broth; conditions: Neisseria gonorrhoeae; N. gonorrhoeae strain WHO G; Fastidious broth; read-out: Minimum Inhibitory Concentration, N. gonorrhoeae WHO G
Outline: as §2

N. gonorrhoeae WHO K = assay: Liquid broth MIC in Fastidious broth; conditions: Neisseria gonorrhoeae, read-out: Minimum Inhibitory Concentration, N. gonorrhoeae WHO K
Outline: as §2

N. gonorrhoeae WHO L = assay: Liquid broth MIC in Fastidious broth; conditions: Neisseria gonorrhoeae; N. gonorrhoeae strain WHO L; Fastidious broth; read-out: Minimum Inhibitory Concentration, N. gonorrhoeae WHO L
Outline: as §2

Compound | MIC (A. baumannii ATCC 19606) | MIC (E. coli AG100A) | MIC (E. coli AG100) | MIC (E. coli ATCC 25922) | MIC (E. coli D22) | MIC [1] | MIC (N. gonorrhoeae FA1090) | MIC (N. gonorrhoeae H041) | MIC (N. gonorrhoeae WHO G) | MIC (N. gonorrhoeae WHO K) | MIC (N. gonorrhoeae WHO L)
CCN1CCN(C(=O)NC(C(=O)N[C@H]2Cc3cccc(C(=O)O)c3OB2O)c2ccc(O)c(NC(=O)c3ccc(O)c(O)c3Cl)c2)C(=O)C1=O (stereo partly drawn) [Example 74, (3R)-3-(2-(3-(2-chloro-3,4-dihydroxybenzamido)-4-hydroxyphenyl)-2-(4-ethyl-2,3-dioxopiperazine-1-carboxamido)acetamido)-2-hydroxy-3,4-dihydro-2H-benzo[e][1,2]oxaborinine-8-carboxylic acid] | > 128 µg/mL | 8 to 16 µg/mL (≈ 11.3 to 22.5 µM) | 8 to 16 µg/mL (≈ 11.3 to 22.5 µM) | > 128 µg/mL | 2 to 4 µg/mL (≈ 2.82 to 5.63 µM) | > 64 µg/mL | 1 to 2 µg/mL (≈ 1.41 to 2.82 µM) | > 64 µg/mL | 16 to 32 µg/mL (≈ 22.5 to 45.1 µM) | > 64 µg/mL | > 64 µg/mL
CCN1CCN(C(=O)NC(C(=O)N[C@H]2Cc3cccc(C(=O)O)c3OB2O)c2cccc([N+](=O)[O-])c2)C(=O)C1=O (stereo partly drawn) [Example 75, (3R)-3-(2-(4-ethyl-2,3-dioxopiperazine-1-carboxamido)-2-(3-nitrophenyl)acetamido)-2-hydroxy-3,4-dihydro-2H-benzo[e][1,2]oxaborinine-8-carboxylic acid] | > 128 µg/mL | 8 to 16 µg/mL (≈ 14.5 to 28.9 µM) | > 128 µg/mL | > 128 µg/mL | 8 to 16 µg/mL (≈ 14.5 to 28.9 µM) | 4 to 8 µg/mL (≈ 7.23 to 14.5 µM) | 0.25 to 0.5 µg/mL (≈ 0.452 to 0.904 µM) | > 64 µg/mL | 4 to 8 µg/mL (≈ 7.23 to 14.5 µM) | > 64 µg/mL | > 64 µg/mL
CCN1CCN(C(=O)NC(C(=O)N[C@H]2Cc3cccc(C(=O)O)c3OB2O)c2cccc(NS(C)(=O)=O)c2)C(=O)C1=O (stereo partly drawn) [Example 76, (3R)-3-(2-(4-ethyl-2,3-dioxopiperazine-1-carboxamido)-2-(3-(methylsulfonamido)phenyl)acetamido)-2-hydroxy-3,4-dihydro-2H-benzo[e][1,2]oxaborinine-8-carboxylic acid] | > 128 µg/mL | 2 to 4 µg/mL (≈ 3.33 to 6.65 µM) | 8 to 16 µg/mL (≈ 13.3 to 26.6 µM) | 32 to 64 µg/mL (≈ 53.2 to 106 µM) | 2 to 4 µg/mL (≈ 3.33 to 6.65 µM) | > 64 µg/mL | 1 to 2 µg/mL (≈ 1.66 to 3.33 µM) | > 64 µg/mL | 16 to 32 µg/mL (≈ 26.6 to 53.2 µM) | > 64 µg/mL | > 64 µg/mL
CCN1CCN(C(=O)NC(C(=O)N[C@H]2Cc3cccc(C(=O)O)c3OB2O)c2cc(O)ccc2O)C(=O)C1=O (stereo partly drawn) [Example 77, (3R)-3-(2-(2,5-dihydroxyphenyl)-2-(4-ethyl-2,3-dioxopiperazine-1-carboxamido)acetamido)-2-hydroxy-3,4-dihydro-2H-benzo[e][1,2]oxaborinine-8-carboxylic acid] | > 128 µg/mL | 32 to 64 µg/mL (≈ 59.2 to 118 µM) | > 128 µg/mL | > 128 µg/mL | 8 to 16 µg/mL (≈ 14.8 to 29.6 µM) | 16 to 32 µg/mL (≈ 29.6 to 59.2 µM) | 4 to 8 µg/mL (≈ 7.4 to 14.8 µM) | > 64 µg/mL | 16 to 32 µg/mL (≈ 29.6 to 59.2 µM) | > 64 µg/mL | > 64 µg/mL
N=C(N)NCCN1CCN(C(=O)NC(C(=O)N[C@H]2Cc3ccc(F)c(C(=O)O)c3OB2O)c2ccc(C(=O)O)c(F)c2)C(=O)C1=O (stereo partly drawn) [Example 78, (3R)-3-(2-(4-carboxy-3-fluorophenyl)-2-(4-(2-guanidinoethyl)-2,3-dioxopiperazine-1-carboxamido)acetamido)-7-fluoro-2-hydroxy-3,4-dihydro-2H-benzo[e][1,2]oxaborinine-8-carboxylic acid] | > 128 µg/mL | > 128 µg/mL | > 128 µg/mL | > 128 µg/mL | 8 to 16 µg/mL (≈ 12.4 to 24.8 µM) | 16 to 32 µg/mL (≈ 24.8 to 49.6 µM) | 4 to 8 µg/mL (≈ 6.2 to 12.4 µM) | > 64 µg/mL | 4 to 8 µg/mL (≈ 6.2 to 12.4 µM) | > 64 µg/mL | > 64 µg/mL
NCCN1CCN(C(=O)NC(C(=O)N[C@H]2Cc3cccc(C(=O)O)c3OB2O)c2cc(Cl)c(O)cc2F)C(=O)C1=O (stereo partly drawn) [Example 87, (3R)-3-(2-(4-(2-aminoethyl)-2,3-dioxopiperazine-1-carboxamido)-2-(5-chloro-2-fluoro-4-hydroxyphenyl)acetamido)-2-hydroxy-3,4-dihydro-2H-benzo[e][1,2]oxaborinine-8-carboxylic acid] | > 128 µg/mL | 0.5 to 1 µg/mL (≈ 0.845 to 1.69 µM) | 8 to 16 µg/mL (≈ 13.5 to 27 µM) | 8 to 16 µg/mL (≈ 13.5 to 27 µM) | 2 to 4 µg/mL (≈ 3.38 to 6.76 µM) | 16 to 32 µg/mL (≈ 27 to 54.1 µM) | 0.25 to 0.5 µg/mL (≈ 0.422 to 0.845 µM) | > 64 µg/mL | 4 to 8 µg/mL (≈ 6.76 to 13.5 µM) | > 64 µg/mL | 16 to 32 µg/mL (≈ 27 to 54.1 µM)
